What was measured:
Assay in all cases: SelectScreen kinase profiling
Assay type in all cases: biochemical
[1] = target: T1, Haspin (Homo sapiens, UniProt Q8TF76)
T1 sequence (Q8TF76 1-798): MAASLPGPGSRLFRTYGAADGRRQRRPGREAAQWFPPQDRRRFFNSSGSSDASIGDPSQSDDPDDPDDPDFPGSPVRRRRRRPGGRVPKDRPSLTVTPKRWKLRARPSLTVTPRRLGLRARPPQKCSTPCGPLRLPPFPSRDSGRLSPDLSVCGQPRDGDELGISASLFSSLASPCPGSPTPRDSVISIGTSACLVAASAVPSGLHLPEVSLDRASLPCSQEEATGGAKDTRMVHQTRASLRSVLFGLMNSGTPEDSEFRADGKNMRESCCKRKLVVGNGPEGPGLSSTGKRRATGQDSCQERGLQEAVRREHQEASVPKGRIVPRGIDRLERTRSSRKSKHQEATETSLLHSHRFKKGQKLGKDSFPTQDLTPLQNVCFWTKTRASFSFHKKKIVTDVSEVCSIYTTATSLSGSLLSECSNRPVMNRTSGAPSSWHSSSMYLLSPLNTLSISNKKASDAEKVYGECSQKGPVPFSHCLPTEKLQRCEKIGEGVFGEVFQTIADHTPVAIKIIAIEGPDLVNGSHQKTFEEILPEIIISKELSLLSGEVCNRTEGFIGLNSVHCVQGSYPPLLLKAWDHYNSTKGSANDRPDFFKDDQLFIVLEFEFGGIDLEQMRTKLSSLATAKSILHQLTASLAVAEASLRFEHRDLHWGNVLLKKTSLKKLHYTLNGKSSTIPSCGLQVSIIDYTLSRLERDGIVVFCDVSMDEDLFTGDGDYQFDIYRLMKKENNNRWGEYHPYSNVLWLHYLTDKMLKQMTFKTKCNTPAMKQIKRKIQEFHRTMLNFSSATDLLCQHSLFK
Procedure: (§1) Active human Clk1 and Clk2 were purchased from Life Technologies (Catalog No. PV3315 and PV4279, respectively). RS repeat substrate peptide for Clk1 ([…]) was custom synthesized at the Department of Medical Biochemistry and Molecular Biology, Saarland University, Homburg, Germany. Kinase Inhibition assays for Clk1 and Clk2 were performed as described previously, in the presence of 15 μM ATP [20]. The calculated IC50 values are representative of at least two independent determinations performed in duplicates. The larger panel of kinases shown in Table 4 was screened by the SelectScreen Kinase Profiling Service, Thermo Fisher Scientific, Paisley, UK.

[2] = target: MLCK2 (Homo sapiens, UniProt Q9H1R3)
Procedure: as §1

[3] = target: CK1 γ2 (Homo sapiens, UniProt P78368)
Sequence of CK1 γ2 (P78368 whole entry): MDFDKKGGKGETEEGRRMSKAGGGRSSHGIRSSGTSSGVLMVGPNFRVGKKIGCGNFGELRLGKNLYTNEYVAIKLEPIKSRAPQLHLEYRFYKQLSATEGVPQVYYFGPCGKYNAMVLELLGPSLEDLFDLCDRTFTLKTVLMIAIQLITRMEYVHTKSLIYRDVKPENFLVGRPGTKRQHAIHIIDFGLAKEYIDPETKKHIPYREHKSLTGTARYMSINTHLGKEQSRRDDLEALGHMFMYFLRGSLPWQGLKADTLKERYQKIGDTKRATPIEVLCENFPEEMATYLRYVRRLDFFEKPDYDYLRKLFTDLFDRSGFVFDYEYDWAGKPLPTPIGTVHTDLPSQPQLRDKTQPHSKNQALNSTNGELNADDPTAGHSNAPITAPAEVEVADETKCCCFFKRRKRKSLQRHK
Procedure: as §1

[4] = target: Clk4 (Homo sapiens, UniProt Q9HAZ1)
Sequence of Clk4 (Q9HAZ1 whole entry): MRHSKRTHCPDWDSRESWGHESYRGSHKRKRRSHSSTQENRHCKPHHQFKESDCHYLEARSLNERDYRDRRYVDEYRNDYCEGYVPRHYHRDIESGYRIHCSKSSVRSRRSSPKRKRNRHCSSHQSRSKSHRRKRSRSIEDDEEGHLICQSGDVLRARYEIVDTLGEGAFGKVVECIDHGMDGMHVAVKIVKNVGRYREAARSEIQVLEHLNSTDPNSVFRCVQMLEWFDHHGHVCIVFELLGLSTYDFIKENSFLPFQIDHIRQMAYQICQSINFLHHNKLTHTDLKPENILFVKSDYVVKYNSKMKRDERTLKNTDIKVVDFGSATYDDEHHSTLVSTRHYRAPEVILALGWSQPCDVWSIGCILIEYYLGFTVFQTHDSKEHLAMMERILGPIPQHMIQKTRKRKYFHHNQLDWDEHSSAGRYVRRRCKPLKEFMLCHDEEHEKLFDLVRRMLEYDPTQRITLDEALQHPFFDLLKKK
Procedure: as §1

[5] = target: PIM1 (Homo sapiens, UniProt P11309)
Sequence of PIM1 (P11309 whole entry): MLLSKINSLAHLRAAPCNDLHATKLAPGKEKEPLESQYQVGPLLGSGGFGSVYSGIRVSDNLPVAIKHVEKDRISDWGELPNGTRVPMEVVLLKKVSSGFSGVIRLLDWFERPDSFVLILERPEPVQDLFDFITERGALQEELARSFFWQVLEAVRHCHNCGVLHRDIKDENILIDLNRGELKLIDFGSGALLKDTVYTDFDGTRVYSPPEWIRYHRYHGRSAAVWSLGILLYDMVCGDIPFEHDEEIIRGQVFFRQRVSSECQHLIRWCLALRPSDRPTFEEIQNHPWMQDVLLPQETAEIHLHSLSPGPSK
Procedure: as §1

[6] = target: Clk3 (Homo sapiens, UniProt P49761)
Sequence of Clk3 (P49761 whole entry): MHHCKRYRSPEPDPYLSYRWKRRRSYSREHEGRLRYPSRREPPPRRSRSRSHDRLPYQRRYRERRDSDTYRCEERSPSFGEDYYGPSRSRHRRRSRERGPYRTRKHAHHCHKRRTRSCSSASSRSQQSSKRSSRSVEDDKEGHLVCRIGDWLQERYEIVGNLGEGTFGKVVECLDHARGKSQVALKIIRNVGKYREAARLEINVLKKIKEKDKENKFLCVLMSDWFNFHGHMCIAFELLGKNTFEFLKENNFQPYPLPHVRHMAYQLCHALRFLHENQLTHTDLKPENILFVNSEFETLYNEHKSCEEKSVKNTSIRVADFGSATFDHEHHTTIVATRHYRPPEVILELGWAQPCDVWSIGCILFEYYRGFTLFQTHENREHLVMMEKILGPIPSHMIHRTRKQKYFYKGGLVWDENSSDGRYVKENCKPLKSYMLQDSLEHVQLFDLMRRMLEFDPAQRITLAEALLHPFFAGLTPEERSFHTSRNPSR
Procedure: as §1

[7] = target: Clk1 (Homo sapiens, UniProt P49759)
Sequence of Clk1 (P49759 whole entry): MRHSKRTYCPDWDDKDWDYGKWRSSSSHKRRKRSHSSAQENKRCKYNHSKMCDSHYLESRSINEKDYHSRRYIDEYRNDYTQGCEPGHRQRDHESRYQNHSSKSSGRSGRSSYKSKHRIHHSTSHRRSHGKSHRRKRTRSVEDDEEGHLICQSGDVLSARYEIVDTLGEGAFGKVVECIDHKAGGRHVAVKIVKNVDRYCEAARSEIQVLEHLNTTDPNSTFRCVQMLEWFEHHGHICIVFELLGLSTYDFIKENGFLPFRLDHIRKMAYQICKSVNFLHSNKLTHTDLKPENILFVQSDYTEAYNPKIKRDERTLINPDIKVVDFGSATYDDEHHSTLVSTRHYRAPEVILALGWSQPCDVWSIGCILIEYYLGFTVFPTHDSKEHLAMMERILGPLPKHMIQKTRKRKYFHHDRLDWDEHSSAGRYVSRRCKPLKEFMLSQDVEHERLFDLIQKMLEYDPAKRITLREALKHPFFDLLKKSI
Procedure: as §1

[8] = target: T2, DYRK2 (Homo sapiens, UniProt Q92630)
T2 sequence (Q92630 1-601): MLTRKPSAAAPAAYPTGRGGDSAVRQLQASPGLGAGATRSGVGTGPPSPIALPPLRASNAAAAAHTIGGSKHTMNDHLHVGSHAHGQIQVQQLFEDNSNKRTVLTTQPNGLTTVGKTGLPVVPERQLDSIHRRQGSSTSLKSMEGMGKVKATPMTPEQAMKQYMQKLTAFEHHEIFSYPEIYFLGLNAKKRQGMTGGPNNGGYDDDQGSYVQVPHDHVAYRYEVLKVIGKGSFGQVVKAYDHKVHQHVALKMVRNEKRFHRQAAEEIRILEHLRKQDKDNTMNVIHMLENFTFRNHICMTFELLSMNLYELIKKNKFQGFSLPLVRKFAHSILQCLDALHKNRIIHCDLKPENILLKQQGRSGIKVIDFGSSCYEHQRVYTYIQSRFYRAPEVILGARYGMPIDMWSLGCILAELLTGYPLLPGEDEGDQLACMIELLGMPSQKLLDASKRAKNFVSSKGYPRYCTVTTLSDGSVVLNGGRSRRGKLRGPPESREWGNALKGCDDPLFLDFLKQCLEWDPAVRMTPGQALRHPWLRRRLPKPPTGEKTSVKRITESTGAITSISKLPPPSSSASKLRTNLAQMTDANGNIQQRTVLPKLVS
Procedure: as §1

[9] = target: DYRK1B (Homo sapiens, UniProt Q9Y463)
Sequence of DYRK1B (Q9Y463 whole entry): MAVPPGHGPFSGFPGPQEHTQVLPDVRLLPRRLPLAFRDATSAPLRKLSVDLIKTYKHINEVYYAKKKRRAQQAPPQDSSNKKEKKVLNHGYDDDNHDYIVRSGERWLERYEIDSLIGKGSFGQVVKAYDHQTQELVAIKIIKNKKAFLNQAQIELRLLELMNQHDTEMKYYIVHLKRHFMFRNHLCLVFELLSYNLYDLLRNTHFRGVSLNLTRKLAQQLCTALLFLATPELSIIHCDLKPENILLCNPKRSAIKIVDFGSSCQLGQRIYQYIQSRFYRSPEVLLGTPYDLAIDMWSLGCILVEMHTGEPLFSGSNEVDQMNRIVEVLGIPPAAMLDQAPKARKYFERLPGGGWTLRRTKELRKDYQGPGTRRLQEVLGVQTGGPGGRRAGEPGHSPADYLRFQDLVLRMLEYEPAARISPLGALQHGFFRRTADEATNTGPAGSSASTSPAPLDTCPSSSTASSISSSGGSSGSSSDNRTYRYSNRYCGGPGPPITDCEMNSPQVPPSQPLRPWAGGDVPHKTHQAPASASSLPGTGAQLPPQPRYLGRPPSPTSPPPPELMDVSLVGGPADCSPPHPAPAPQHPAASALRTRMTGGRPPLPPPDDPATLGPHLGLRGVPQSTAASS
Procedure: as §1

[10] = target: T3, DYRK3 (Homo sapiens, UniProt O43781)
T3 sequence (O43781 1-588): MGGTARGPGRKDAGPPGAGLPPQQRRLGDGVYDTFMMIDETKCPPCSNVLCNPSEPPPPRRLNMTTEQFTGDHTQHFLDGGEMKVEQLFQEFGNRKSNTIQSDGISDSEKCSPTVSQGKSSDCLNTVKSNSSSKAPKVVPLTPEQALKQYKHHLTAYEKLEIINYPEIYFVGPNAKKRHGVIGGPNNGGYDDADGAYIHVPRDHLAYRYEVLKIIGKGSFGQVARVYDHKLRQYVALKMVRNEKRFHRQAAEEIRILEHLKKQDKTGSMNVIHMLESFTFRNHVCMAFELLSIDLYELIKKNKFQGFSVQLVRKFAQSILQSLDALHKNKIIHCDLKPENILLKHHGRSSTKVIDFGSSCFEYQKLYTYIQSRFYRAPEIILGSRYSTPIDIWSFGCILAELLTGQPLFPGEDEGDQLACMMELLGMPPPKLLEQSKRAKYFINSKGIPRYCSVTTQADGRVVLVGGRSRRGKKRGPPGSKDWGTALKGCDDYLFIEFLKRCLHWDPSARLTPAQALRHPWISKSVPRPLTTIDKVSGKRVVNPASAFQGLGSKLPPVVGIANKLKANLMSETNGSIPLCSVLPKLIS
Procedure: as §1

COc1ccc2sc(C(=O)N(C)Cc3cc(F)cc(F)c3)cc2c1 [Compound 10b, N-Methyl-N-(3,5-difluorobenzyl)-5-methoxybenzothiophene-2-carboxamide]
inhibition at 1 µM [1]: 0% | inhibition at 1 µM [2]: 3% | inhibition at 1 µM [3]: 2% | inhibition at 1 µM [4]: 100% | inhibition at 1 µM [5]: 6% | inhibition at 1 µM [6]: 48% | inhibition at 1 µM [7]: 80% | inhibition at 1 µM [8]: 19% | inhibition at 1 µM [9]: 70% | inhibition at 1 µM [10]: 3%
